Assay results from patent US11234920B2, “Manufacturing method of an ascorbic acid dispersion material” (priority 2015, dated 2022).

Assay: Observation of the crystals using a scanning electron microscope; measurement of the crystal thickness
Assay type: physicochemical
Conditions: scanning electron microscope image
Experimental: The ascorbic acid crystals contained in the ascorbic acid dispersion material of the present invention obtained in Examples 1 to 3 were observed using a scanning electron microscope. 3. 5 mL of the ascorbic acid dispersion material of the present invention obtained in Examples 1 to 3 as an analyte and 0.5 g of commercially available ascorbic acid crystal powder were both infused into 20 mL of the dispersion medium prepared in 2, lightly shaken, and mixed. 6. The operations of 4 and 5 were further carried out to remove the solvent component of the ascorbic acid dispersion material of the present invention, following which the operation of 4 was further carried out to precipitate particles of the ascorbic acid, and remove the supernatant, and the particles were dried at a low temperature to obtain particulate powder. […]

SMILES: O=C1O[C@H]([C@@H](O)CO)C(O)=C1O [ascorbic acid crystal powder, ascorbic acid]
- Crystal shape: indeterminate crystal shape
